In patent publication US10358453B2, “Antiviral compounds” (priority 2015, dated 2019):
Read-outs that look alike come from different tables or passages of the source.

Columns and labels:
[1] = system: RSV subgenomic replicon 395 HeLa and APC126; experiment: RSV subgenomic replicon assay (Renilla luciferase); type: cell-based; conditions: human respiratory syncytial virus; RSV replicon cells (395 HeLa 7 days or APC126 3 days); Table G = less than 1 μM, Table H = equal to or higher than 1 μM and less than 50 μM
Method in brief: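 Replicon cells (RSV with SH, G, F replaced by blasticidin resistance; 395 HeLa or BHK-derived APC126) exposed to 9-point 1:3 compound dilutions in 1% DMSO for 7 days (395 HeLa) or 3 days (APC126) at 37 °C. Renilla luciferase luminescence read; EC50 is concentration cutting signal 50% versus untreated cells.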

recombinant RSV complex = recombinant RSV complex (Human respiratory syncytial virus A, UniProt P28887); experiment: RSV polymerase inhibition assay; type: biochemical; conditions: 10 nM recombinant RSV complex, 2 h at 30° C.; Table E = <1 μM, Table F = <50 μM; read-out: IC50
Method in brief: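 10 nM recombinant RSV polymerase complex in Tris-HCl pH7.5, 6 mM MgCl2 with RNA oligonucleotides and radionucleotides, incubated 2 h at 30° C with rising inhibitor concentrations. Stopped with EDTA; radiolabelled RNA product counted by scintillation; IC50 from sigmoidal non-linear regression.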

[2] = Cytotoxicity determination (CCK-8, without addition of virus); type: cell-based; conditions: human, HEp-2 cells (uninfected), no virus, Table C = greater than 100 μM, Table D = equal to or less than 100 μM and greater than 10 μM
Method in brief: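 HEp-2 cells, no virus, exposed to compound from 100 μM in ½ serial dilutions (7 points, duplicate, 1% DMSO) for 5 days at 37° C, 5% CO2. Viability by CCK-8 (3-4 h) optical density; CC50 calculated.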

[3] = system: Respiratory Syncytial Virus (RSV) long strain; experiment: RSV antiviral assay (CPE reduction, CCK-8 readout); type: cell-based; conditions: human respiratory syncytial virus
Protocol: CPE reduction assays are performed as described by Sidwell and Huffman et al., Appl. Microbiol. […] Compounds are added into 384-well cell plates by Labcyte POD 810 Plate Assembler system. Each of the test compounds is provided to duplicate wells of a 384-well cell plate at final concentrations starting from 100 μM or 1 μM using 1/3 stepwise dilutions for 9 points. Quick-thaw Respiratory Syncytial Virus (RSV) long strain (ATCC#VR-26) stock in a 37° C. water bath. Place on ice until ready to use. Viruses are diluted to the concentration of 100 TCID50/30 μL with medium and 30 μl diluted RSV are added into related wells of 384-well cell plates. For each plate, sixteen wells are set aside as uninfected, untreated cell controls (CC), and nine wells per test plate receive virus only as a control for virus replication (VC). The final DMSO concentration of all wells is 1%. Place the plates at 37° C., 5% CO2 for 5 days.
After 5 days incubation, observe the CPE of cells in all wells. […] Six μl of cell counting kit-8 reagent (CCK-8, Dojindo Molecular Technologies Inc., CK04-20) are added to each well, which allows colorimetric assays to determine the number of viable cells through the dehydrogenase activity detection. After 3-4 hour incubation, the absorbance of each well is measured with a spectrophotometric plate reader at 450 nm wavelength, using a 630 nm filter as background according to manufacturer's instruction.

[4] = 120 h, HEp-2 cells, RSV long strain, 5 days, Table A = less than 1 μM, Table B = equal to or higher than 1 μM and less than 50 μM, read-out: EC50

Sequence of recombinant RSV complex (P28887 whole entry): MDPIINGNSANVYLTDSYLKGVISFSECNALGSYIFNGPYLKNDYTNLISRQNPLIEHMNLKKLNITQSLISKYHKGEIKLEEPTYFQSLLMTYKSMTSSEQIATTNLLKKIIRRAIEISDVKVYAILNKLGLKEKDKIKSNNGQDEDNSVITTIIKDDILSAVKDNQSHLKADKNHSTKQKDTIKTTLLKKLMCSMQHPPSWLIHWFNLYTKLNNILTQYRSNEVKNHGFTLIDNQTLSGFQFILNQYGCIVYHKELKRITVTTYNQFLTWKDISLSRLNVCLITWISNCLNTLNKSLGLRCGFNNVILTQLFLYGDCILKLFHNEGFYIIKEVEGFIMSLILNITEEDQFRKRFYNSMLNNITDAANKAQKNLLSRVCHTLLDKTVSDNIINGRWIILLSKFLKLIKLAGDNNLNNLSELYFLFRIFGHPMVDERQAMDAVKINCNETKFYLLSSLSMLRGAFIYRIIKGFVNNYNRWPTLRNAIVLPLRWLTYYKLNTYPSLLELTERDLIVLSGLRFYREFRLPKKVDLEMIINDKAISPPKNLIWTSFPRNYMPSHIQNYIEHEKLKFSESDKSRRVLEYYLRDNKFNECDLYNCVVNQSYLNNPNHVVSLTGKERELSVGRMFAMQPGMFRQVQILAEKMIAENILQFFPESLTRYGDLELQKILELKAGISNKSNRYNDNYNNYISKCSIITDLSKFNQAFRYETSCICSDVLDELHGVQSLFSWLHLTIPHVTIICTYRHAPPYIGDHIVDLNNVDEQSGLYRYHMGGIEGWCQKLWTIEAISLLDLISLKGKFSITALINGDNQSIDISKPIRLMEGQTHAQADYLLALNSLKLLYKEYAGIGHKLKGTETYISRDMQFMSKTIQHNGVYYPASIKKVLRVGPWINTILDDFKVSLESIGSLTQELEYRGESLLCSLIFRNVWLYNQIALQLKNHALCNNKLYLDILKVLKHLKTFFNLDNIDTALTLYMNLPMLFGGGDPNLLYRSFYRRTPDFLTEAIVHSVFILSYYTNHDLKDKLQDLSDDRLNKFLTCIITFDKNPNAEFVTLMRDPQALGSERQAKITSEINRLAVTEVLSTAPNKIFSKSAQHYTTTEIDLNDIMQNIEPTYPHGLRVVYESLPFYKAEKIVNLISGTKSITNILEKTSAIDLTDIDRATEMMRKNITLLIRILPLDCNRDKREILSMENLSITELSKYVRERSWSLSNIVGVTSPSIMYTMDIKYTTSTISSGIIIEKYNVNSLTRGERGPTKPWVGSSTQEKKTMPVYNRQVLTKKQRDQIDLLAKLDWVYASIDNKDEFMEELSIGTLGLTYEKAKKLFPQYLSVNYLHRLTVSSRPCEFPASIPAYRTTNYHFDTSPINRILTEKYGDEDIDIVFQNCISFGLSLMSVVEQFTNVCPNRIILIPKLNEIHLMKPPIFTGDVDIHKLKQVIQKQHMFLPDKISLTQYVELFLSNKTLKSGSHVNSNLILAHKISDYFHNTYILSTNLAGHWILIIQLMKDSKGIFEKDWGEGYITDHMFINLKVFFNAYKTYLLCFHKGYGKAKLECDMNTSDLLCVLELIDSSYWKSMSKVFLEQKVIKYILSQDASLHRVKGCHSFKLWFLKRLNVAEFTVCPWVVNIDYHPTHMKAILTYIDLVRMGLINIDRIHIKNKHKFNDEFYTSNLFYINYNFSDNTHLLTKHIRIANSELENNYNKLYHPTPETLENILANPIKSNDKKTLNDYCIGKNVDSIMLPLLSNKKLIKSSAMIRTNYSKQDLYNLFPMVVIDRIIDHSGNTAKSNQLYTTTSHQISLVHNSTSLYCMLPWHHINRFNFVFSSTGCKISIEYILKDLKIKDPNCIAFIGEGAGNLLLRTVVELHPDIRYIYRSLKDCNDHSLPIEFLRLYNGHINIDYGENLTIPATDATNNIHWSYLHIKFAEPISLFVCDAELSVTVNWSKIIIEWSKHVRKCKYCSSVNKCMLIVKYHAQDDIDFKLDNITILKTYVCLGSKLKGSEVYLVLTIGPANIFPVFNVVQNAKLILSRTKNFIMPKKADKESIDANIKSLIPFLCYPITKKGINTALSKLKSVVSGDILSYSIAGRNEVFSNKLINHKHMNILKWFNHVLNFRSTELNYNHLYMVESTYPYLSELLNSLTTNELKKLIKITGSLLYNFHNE
Sequence of recombinant RSV complex (P03421 whole entry, further chain): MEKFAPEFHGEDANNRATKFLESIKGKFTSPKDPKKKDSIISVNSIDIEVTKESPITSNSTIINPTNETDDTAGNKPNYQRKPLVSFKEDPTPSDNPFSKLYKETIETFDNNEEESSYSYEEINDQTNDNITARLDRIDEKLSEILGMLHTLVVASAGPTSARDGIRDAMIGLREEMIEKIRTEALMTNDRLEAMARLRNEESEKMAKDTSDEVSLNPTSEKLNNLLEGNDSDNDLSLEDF

Row | SMILES | EC50 [1] [µM] | IC50 (recombinant RSV complex) [µM] | CC50 at 5 days [2] [µM] | EC50 [3, 4] [µM] | EC50 ([3]; HEp-2, 120 h) [µM]
1 | COc1cc(C(=O)NCC(O)(c2cc3c(c(-c4ccc(F)cc4)n2)OCC3(C)N)C(F)(F)F)cc2c1NC(=O)C2=O (centres unmarked) [Compound 10] | 1 to 50 | < 50 | 10 to 100 | 1 to 50 | –
2 | COc1cc(C(=O)NCC(O)(c2cc3c(c(-c4ccc(F)cc4)n2)OCC3(N)CO)C(F)(F)F)cc2cccnc12 (centres unmarked) [Compound 1] | < 1 | < 1 | 10 to 100 | – | < 1
3 | CC(C)(N)c1cc(-c2ccc(F)cc2)nc([C@@](O)(CNC(=O)c2ccc(OC3CC3)c(OCCO)c2)C(F)(F)F)c1 [Compound 59] | < 1 | < 1 | 10 to 100 | – | –
4 | CC1(N)COc2c1cc(C(O)(CNC(=O)c1ccc(CO)c(OC3CC3)c1)C(F)(F)F)nc2-c1ccc(F)cc1 (centres unmarked) [Compound 22] | < 1 | < 1 | 10 to 100 | – | –
5 | COc1ccc(C(=O)NCC(O)(c2cc3c(c(-c4ccc(F)cc4)n2)OCC3(C)N)C(F)(F)F)nc1OC (centres unmarked) [Compound 112] | < 1 | < 1 | 10 to 100 | – | –
6 | Cn1nc(C(F)(F)F)cc1C(=O)NCC(O)(c1cc2c(c(-c3ccc(F)cc3)n1)OCC2(C)N)C(F)(F)F (centres unmarked) [Compound 114] | < 1 | < 1 | 10 to 100 | – | –
7 | COc1cc(C(=O)NC[C@@](O)(c2cc3c(c(-c4ccc(F)cc4)n2)OC[C@@]3(C)NC2COC2)C(F)(F)F)ccc1OC[C@@H](C)O [Compound 131] | < 1 | < 1 | 10 to 100 | – | –
8 | C[C@@]1(N)CNc2c1cc([C@](O)(CNC(=O)c1ccc(OC3CC3)c(OC3CC3)c1)C(F)(F)F)nc2-c1ccc(F)cc1 [Compound 62] | < 1 | < 50 | 10 to 100 | – | –
9 | C[C@@]1(N)COc2c1cc([C@](O)(CNC(=O)c1cc(OCCO)c3[nH]ccc3c1)C(F)(F)F)nc2-c1ccc(F)cc1 [Compound 124] | < 1 | < 1 | 10 to 100 | – | –
10 | C[C@@H](O)COc1ccc(C(=O)NC[C@@](O)(c2cc3c(c(-c4ccc(F)cc4)n2)OC[C@@]3(C)N)C(F)(F)F)cc1Cl [Compound 113] | < 1 | < 1 | 10 to 100 | – | –
11 | COc1cc(C(=O)NCC(O)(c2cc3c(c(-c4ccc(F)cc4)n2)OCC3(N)CO)C(F)(F)F)cc2cccnc12 (single isomer, unassigned) [Compound 2] | < 1 | < 1 | – | < 1 | –
12 | COc1cc(C(=S)NCC(O)(c2cc3c(c(-c4ccc(F)cc4)n2)OCC3(C)N)C(F)(F)F)ccc1OCCO (centres unmarked) [Compound 44] | < 1 | < 1 | 10 to 100 | – | –
13 | CC1(N)COc2c1cc(C(O)(CNC(=O)c1ccc(OC3CC3)c(OCCO)c1)C(F)(F)F)nc2-c1ccc(F)cc1 (centres unmarked) [Compound 12] | < 1 | < 1 | – | < 1 | –
14 | COc1cc(C(=O)NC[C@@](O)(c2cc([C@]3(C)CCN3)cc(-c3ccc(F)cc3)n2)C(F)(F)F)ccc1OC[C@@H](C)O (racemic) [Compound 14] | < 1 | < 1 | 10 to 100 | – | –
15 | COc1cc(C(=O)NC[C@](O)(c2cc3c(c(-c4ccc(F)cc4)n2)OCC[C@]3(C)N)C(F)(F)F)ccc1OC[C@@H](C)O (single isomer, unassigned) [Compound 87] | < 1 | < 1 | > 100 | – | –
16 | COc1nc(C(=O)NCC(O)(c2cc3c(c(-c4ccc(F)cc4)n2)OCC3(C)N)C(F)(F)F)cc2c1NC(=O)C2 (centres unmarked) [Compound 47] | < 1 | < 1 | 10 to 100 | – | –
17 | C[C@@]1(N)COc2c1cc(C(O)(CNC(=O)c1ccc3[nH]ccc3c1)C(F)(F)F)nc2-c1ccc(F)cc1 (some centres unmarked) [Compound 16] | < 1 | < 1 | 10 to 100 | – | –
18 | COc1cc(C(=O)NC[C@@](O)(c2cc(C3(C)CCN3)cc(-c3ccc(F)cc3)n2)C(F)(F)F)ccc1OC[C@@H](C)O (single isomer, unassigned) [Compound 15] | < 1 | < 1 | 10 to 100 | – | –
19 | COc1cc(C(=O)NC[C@@](O)(c2cc3c(c(-c4ccc(F)cc4)n2)NC[C@@]3(C)N)C(F)(F)F)ccc1OCC(N)=O [Compound 72] | < 1 | < 1 | > 100 | – | –
20 | C[C@@]1(N)COc2c1cc([C@](O)(CNC(=O)c1ccc(OCCO)c(OC3CC3)c1)C(F)(F)F)nc2-c1ccc(F)cc1 [Compound 55] | < 1 | < 1 | 10 to 100 | – | –
21 | COc1cc(C(=O)NCC(O)(c2cc(N3CCNCC3)cc(-c3ccc(F)cc3)n2)C(F)(F)F)ccc1OCCO (centres unmarked) [Compound 138] | 1 to 50 | < 1 | 10 to 100 | – | –
22 | CC(C)(N)c1cc(-c2ccc(F)cc2)nc(C(O)(CNC(=O)c2ccc(OC3CC3)c(OCCO)c2)C(F)(F)F)c1 (centres unmarked) [Compound 36] | < 1 | < 1 | 10 to 100 | – | –
23 | COc1cc(C(=O)NCC(O)(c2cc3c(c(-c4ccc(F)cc4)n2)OCCC3(N)C2CC2)C(F)(F)F)ccc1OC[C@@H](C)O (some centres unmarked) [Compound 92] | < 1 | < 1 | 10 to 100 | – | –
24 | COc1cc(C(=O)NCC(O)(c2cc(C3(C)CCNCC3)cc(-c3ccc(F)cc3)n2)C(F)(F)F)ccc1OCCO (centres unmarked) [Compound 117] | 1 to 50 | < 50 | 10 to 100 | – | –
